Columns and labels:
[1] = tested on: Escherichia coli (E. coli); test: Inhibition zone assay of bacteriostatic activity (GB/T 39101-2020, punching method); format: cell-based; conditions: FIG. 19, repeated three times
Protocol: Preparation of a silver nanoparticle sample for control: 0.1 mol/L AgCl was dissolved in 16 mL of an ammonia solution at a mass concentration of 25% with continuous stirring, and an aqueous solution of 0.1 mol/L vitamin C was added dropwise. […] The solution was then filtered, and the precipitate was washed repeatedly with double-distilled water, dispersed in double-distilled water, and freeze-dried for 24 h to afford silver nanoparticles prepared from vitamin C.
Determination of antibacterial activity of polypeptides according to GB/T 39101-2020: Inhibition zone assays in the inhibition zone method evaluate the bacteriostatic activity of test substances. The strain used is Escherichia coli (E. coli) in an ampicillin solution having a concentration of 1.5 mg/mL, using the punching method instead of the “Oxford cup” method to control the sampling areas.

[2] = Inclusion rate of C-β-CD for thymol (UV absorbance at 278 nm); format: physicochemical; conditions: thymol/C-β-CD inclusion complex, 40° C. 2 h, freeze-dried
Protocol: 0.656 g of the cationic β-cyclodextrin (C-β-CD) prepared in Example 1 was weighed and added with 10 mL distilled water until completely dissolution. An anhydrous ethanol solution containing 0.075 g thymol (2 mL in total) was added. The mixture was magnetically stirred in a water bath at 40° C. for 2 h. After completion, the mixture was filtered with a 0.45 μm microporous membrane. The resulting solution was freeze-dried for 24 h to afford a thymol/C-β-CD inclusion complex.
15 mg of analytically pure thymol was weighed and dissolved in anhydrous ethanol, and the volume was adjusted to 10 mL to prepare a 1500 mg/L stock solution. A proper amount of the stock solution was taken and diluted with anhydrous ethanol into a series of standard solutions at a concentration of 50, 40, 30, 20, and 10 mg/L. In the optimal absorption wavelength, an absorbance A of the above series of standard solutions was determined. A standard curve was drawn with a thymol concentration (mg/L) as an abscissa and A as an ordinate.
0.1 g of the thymol/C-β-CD inclusion complex as prepared above was weighed and added into a 25 mL volumetric flask, added with anhydrous ethanol to dilute to the mark, and sonicated for 30 min. […] The absorbance A of the solution at 278 nm was determined, and taken into the regression equation to calculate the thymol content in the inclusion complex. […]

[3] = Inclusion rate of C-β-CD for cinnamaldehyde (UV absorbance at 287 nm); format: physicochemical; conditions: saturated aqueous solution method, 45° C. 4 h, freeze-dried
Protocol: 0.656 g the cationic β-cyclodextrin (C-β-CD) prepared in Example 1 was weighed and added with 10 mL distilled water until completely dissolution. An anhydrous ethanol solution containing 0.066 g cinnamaldehyde was added slowly. The mixture was magnetically stirred in a water bath at 45° C. for 4 h. After completion, the mixture was filtered with a 0.45 μm microporous membrane. The resulting solution was freeze-dried for 24 h to afford a cinnamaldehyde/C-β-CD inclusion complex.
10 mg analytically pure cinnamaldehyde was weighed and dissolved in anhydrous ethanol, and the volume was adjusted to 10 mL to prepare a 1000 mg/L stock solution. A proper amount of the stock solution was taken and diluted with anhydrous ethanol into a series of standard solutions at a concentration of 2, 4, 6, 8, and 10 mg/L. In the optimal absorption wavelength, the absorbance A of the above series of standard solutions was determined. […]
0.01 g of the C-β-CD inclusion complex of cinnamaldehyde was weighed and added into a 25 mL volumetric flask, added with anhydrous ethanol to dilute to the mark, and sonicated for 30 min. […] The absorbance A of the solution was determined at 287 nm and taken into the regression equation to calculate the cinnamaldehyde content in the inclusion complex (see the previous example for the conversion formula).

O=[N+]([O-])[O-].[Ag+] [AgNO3, silver nitrate, reference compound]
bacteriostatic effect [1]: weak bacteriostatic effect

cationic β-cyclodextrin [C-β-CD]
bacteriostatic effect [1]: no bacteriostatic activity
inclusion rate for thymol [2]: 63.55%
inclusion rate for cinnamaldehyde [3]: 21.55%

Source: patent publication US12220463B2, “Quaternary ammonium cyclodextrin and preparation method and uses thereof, and silver nanoparticle-cyclodextrin complex and preparation method and uses thereof” (Hubei University of Chinese Medicine, priority 2022, dated 2025)
